Measured values as given in the supplement of paper PMC8967900.

Tests used:
Test in all cases: selective drug sensitivity score (sDSS, relative to normal bone marrow) (sDSS (score)); higher = more potent and effective on the cell line relative to normal bone marrow cells
Conditions in all cases: 72 h
[1] = test system: MOLT-4
[2] = test system: PF-382
[3] = test system: COG-LL-402h
[4] = test system: MHH-CALL-3
[5] = test system: JURKAT
[6] = test system: KASUMI-10
[7] = test system: PEER
[8] = test system: TANOUE
[9] = test system: ALL-SIL
[10] = test system: REH
[11] = test system: COG-LL-319h
[12] = test system: SEM cells
[13] = test system: COG-LL-394h
[14] = test system: RCH-ACV
[15] = test system: 380
[16] = test system: HPB-ALL
[17] = test system: NALM-16
[18] = test system: COG-LL-317
[19] = test system: NALM-6
[20] = test system: KASUMI-9
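Further: ALL cell lines in 384-well plates, five doses spanning 10,000-fold, each plate scaled between vehicle and 100 µmol/L benzalkonium chloride controls, sDSS an adapted area-under-curve metric.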

| SMILES | selective drug sensitivity score [1] | selective drug sensitivity score [2] | selective drug sensitivity score [3] | selective drug sensitivity score [4] | selective drug sensitivity score [5] | selective drug sensitivity score [6] | selective drug sensitivity score [7] | selective drug sensitivity score [8] | selective drug sensitivity score [9] | selective drug sensitivity score [10] | selective drug sensitivity score [11] | selective drug sensitivity score [12] | selective drug sensitivity score [13] | selective drug sensitivity score [14] | selective drug sensitivity score [15] | selective drug sensitivity score [16] | selective drug sensitivity score [17] | selective drug sensitivity score [18] | selective drug sensitivity score [19] | selective drug sensitivity score [20] |
| --- | --- | --- | --- | --- | --- | --- | --- | --- | --- | --- | --- | --- | --- | --- | --- | --- | --- | --- | --- | --- |
| CO[C@H](C(=O)[C@@H](O)[C@@H](C)O)[C@@H]1Cc2cc3cc(O[C@H]4C[C@@H](O[C@H]5C[C@@H](O)[C@H](O)[C@@H](C)O5)[C@@H](O)[C@@H](C)O4)c(C)c(O)c3c(O)c2C(=O)[C@H]1O[C@H]1C[C@@H](O[C@H]2C[C@@H](O[C@H]3C[C@](C)(O)[C@H](O)[C@@H](C)O3)[C@H](O)[C@@H](C)O2)[C@H](O)[C@@H](C)O1 [Plicamycin] (top concentration 10000 nM) | -6.26 | -12.1 | 2.34 | 5.34 | -11.2 | -2.36 | -12.8 | -14.4 | -1.46 | -13.4 | 7.54 | -16.6 | 0.04 | -17.3 | 7.14 | 7.44 | 2.74 | -1.96 | 7.34 | -17.5 |
| FC(F)(F)c1ccc(CNc2ccc(Cc3c[nH]c4ncc(Cl)cc34)cn2)cn1 [Pexidartinib] (top concentration 10000 nM) | -1.92 | -1.22 | -2.22 | -2.22 | 1.48 | 8.78 | -0.32 | -2.22 | -0.52 | 0.38 | -2.22 | 12.6 | -1.32 | 1.58 | -2.22 | -1.92 | -1.22 | -0.52 | 0.18 | 1.18 |
| Cc1nc(NC(=O)N2CCC[C@H]2C(N)=O)sc1-c1ccnc(C(C)(C)C(F)(F)F)c1 [Alpelisib] (top concentration 2500 nM) | 0.88 | 0.48 | 4.18 | -0.82 | -0.82 | -0.12 | -0.42 | -0.82 | 6.28 | -0.12 | 12.5 | -0.82 | 0.78 | 8.98 | 3.18 | 2.88 | 1.38 | -0.42 | 3.88 | 1.18 |
| CC(C)Oc1ccc(-c2nn([C@@H](C)c3oc4ccc(F)cc4c(=O)c3-c3cccc(F)c3)c3ncnc(N)c23)cc1F [TGR-1202] (top concentration 2500 nM) | -2.56 | -2.56 | -1.96 | -2.56 | -2.56 | -2.56 | -1.86 | -2.56 | -0.36 | -1.76 | 1.64 | -2.56 | -1.46 | 9.14 | -2.56 | -2.56 | 2.24 | -2.56 | -1.16 | 1.44 |
| Nc1cc(F)ccc1NC(=O)c1ccc(CNC(=O)/C=C/c2cccnc2)cc1 [Tucidinostat] (top concentration 10000 nM) | -0.76 | 0.74 | 5.34 | 11.4 | 1.34 | 3.04 | 5.44 | -8.66 | 10.4 | 3.34 | 12 | 10.3 | -3.86 | 11.1 | 12.5 | 3.44 | -0.36 | 2.74 | -0.36 | 7.24 |
| COc1cc2c(cc1-c1c(C)noc1C)ncc1[nH]c(=O)n([C@H](C)c3ccccn3)c12 [I-BET151] (top concentration 10000 nM) | -4.34 | 4.06 | 5.46 | 14.3 | 0.36 | 5.66 | 1.26 | -2.84 | -2.14 | -2.24 | 10.7 | 10.5 | 0.86 | 12.3 | -7.44 | 1.36 | 2.06 | 6.56 | 3.46 | 11.2 |
| CN(C)C1CCN(C(=O)c2ccc(NC(=O)Nc3ccc(-c4nc(N5CCOCC5)nc(N5CCOCC5)n4)cc3)cc2)CC1 [Gedatolisib] (top concentration 1000 nM) | 5.46 | 5.06 | 8.56 | -1.64 | 2.66 | 1.36 | 4.06 | -1.04 | 2.66 | 9.16 | -0.04 | 1.16 | 0.56 | 17.5 | 14.8 | -0.04 | 1.46 | 5.06 | 5.16 | 9.36 |
| Cn1ncc(Cl)c1-c1cc(C(=O)N[C@H](CN)Cc2ccc(F)c(F)c2)oc1Cl [Uprosertib] (top concentration 10000 nM) | 9.3 | 4.6 | 1.7 | -1.4 | 5.9 | -1.4 | 8.5 | -1.2 | 1.5 | 9.6 | 5.3 | 4.5 | -0.6 | 8.3 | 0.6 | -1.4 | 5.4 | 18.8 | 2.9 | 0.7 |
| NC(=O)N1CCC(CC(=O)N2CCC([C@H]3c4ncc(Br)cc4CCc4cc(Cl)cc(Br)c43)CC2)CC1 [Lonafarnib] (top concentration 100000 nM) | 10.5 | 9.44 | 3.64 | 4.54 | 5.74 | -1.56 | 5.94 | -3.96 | 9.34 | 8.04 | 7.04 | 14.1 | 3.04 | 8.64 | -1.06 | 9.84 | 4.04 | 14 | 6.24 | 9.14 |
